biological target: T1, Adenosine receptor A1 (Rattus norvegicus) (UniProt P25099); assay: Antagonist activity by displacement of specific [3H]DPCPX binding in rat cortical membrane (Adenosine A1 receptor) at a Conc of […].; type: cell membranes; settings: not given
T1 sequence (whole entry): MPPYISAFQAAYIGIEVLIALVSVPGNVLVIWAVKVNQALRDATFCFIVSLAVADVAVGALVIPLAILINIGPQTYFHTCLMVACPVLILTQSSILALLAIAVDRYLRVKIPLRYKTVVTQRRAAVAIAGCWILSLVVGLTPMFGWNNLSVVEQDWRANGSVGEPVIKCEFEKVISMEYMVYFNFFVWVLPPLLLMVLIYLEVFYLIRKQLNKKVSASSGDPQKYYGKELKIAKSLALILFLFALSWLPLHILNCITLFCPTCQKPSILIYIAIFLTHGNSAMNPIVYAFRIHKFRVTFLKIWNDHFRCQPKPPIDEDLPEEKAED

Row | SMILES | Displacement [%]
1 | O=C(Nc1nc(-c2ccccn2)cc2ccccc12)c1ccc(Cl)cc1 | 11
2 | CC(=O)Nc1nc(-c2ccccn2)nc2ccccc12 | 25
3 | COc1ccc(C(=O)Nc2nc(-c3ccccn3)cc3ccccc23)cc1OC | 41
4 | Cc1cccc(C(=O)Nc2nc(-c3ccccn3)cc3ccccc23)c1 | 35
5 | COc1cccc(C(=O)Nc2nc(-c3ccccn3)cc3ccccc23)c1 | 22
6 | COc1ccc(C(=O)Nc2nc(-c3ccccn3)nc3ccccc23)cc1 | 41
7 | Cc1cccc(C)c1C(=O)Nc1nc(-c2ccccn2)cc2ccccc12 | 2
8 | Cc1ccc(C(=O)Nc2nc(-c3ccccn3)cc3ccccc23)cc1C | 16
9 | CC(=O)Nc1nc(-c2ccccn2)cc2ccccc12 | 24
10 | Cc1ccc(C(=O)Nc2nc(-c3ccccn3)cc3ccccc23)c(C)c1 | 14
11 | CC(C)C(=O)Nc1nc(-c2ccccn2)cc2ccccc12 | 38
12 | O=C(Nc1nc(-c2ccccn2)nc2ccccc12)c1ccccc1 | 0
13 | O=C(c1ccccc1)N(C(=O)c1ccccc1)c1nc(-c2ccccn2)nc2ccccc12 | 3
14 | Cc1cc(C)cc(C(=O)Nc2nc(-c3ccccn3)cc3ccccc23)c1 | 8
15 | N=CNc1nc(-c2ccccn2)nc2ccccc12 | 38
16 | O=C(Nc1nc(-c2ccccn2)nc2ccccc12)C(F)(F)F | 8
17 | COc1ccc(C(=O)Nc2nc(-c3ccccn3)cc3ccccc23)cc1 | 14
18 | Cc1ccc(C(=O)Nc2nc(-c3ccccn3)cc3ccccc23)cc1 | 37
19 | Oc1nc(-c2ccccn2)cc2ccccc12 | 21
20 | O=C(Nc1nc(-c2ccccn2)cc2ccccc12)c1ccc(Cl)c(Cl)c1 | 0
21 | O=C(Nc1nc(-c2ccccn2)cc2ccccc12)c1cccc(Cl)c1 | 42
22 | Cc1ccc(C)c(C(=O)Nc2nc(-c3ccccn3)cc3ccccc23)c1 | 29
23 | Oc1nc(-c2ccccn2)nc2ccccc12 | 16

biological target: Adenosine receptor A2a (Rattus norvegicus) (UniProt P30543); assay: Antagonistic activity assayed by displacement of specific [3H]-CGS-21,680 binding in rat striatal membrane (adenosine A2A receptor) at a conc of […].; type: cell membranes; settings: Striatum
Sequence (P30543 whole entry): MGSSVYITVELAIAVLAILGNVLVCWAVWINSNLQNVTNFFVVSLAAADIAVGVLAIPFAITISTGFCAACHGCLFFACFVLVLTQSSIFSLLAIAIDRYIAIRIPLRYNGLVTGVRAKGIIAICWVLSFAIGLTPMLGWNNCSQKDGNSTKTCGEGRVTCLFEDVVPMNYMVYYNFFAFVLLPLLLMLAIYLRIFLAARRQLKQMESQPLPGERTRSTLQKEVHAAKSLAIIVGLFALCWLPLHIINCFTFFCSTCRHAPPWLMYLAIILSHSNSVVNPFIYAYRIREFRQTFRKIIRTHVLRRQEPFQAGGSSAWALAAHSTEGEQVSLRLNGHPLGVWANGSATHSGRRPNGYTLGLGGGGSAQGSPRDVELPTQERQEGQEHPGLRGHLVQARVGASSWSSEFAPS

Row | SMILES | Displacement [%]
24 | O=C(Nc1nc(-c2ccccn2)cc2ccccc12)c1ccc(Cl)cc1 | 0
25 | CC(=O)Nc1nc(-c2ccccn2)nc2ccccc12 | 17
26 | N=C(Nc1nc(-c2ccccn2)cc2ccccc12)c1ccccc1 | 4
27 | COc1ccc(C(=O)Nc2nc(-c3ccccn3)cc3ccccc23)cc1OC | 20
28 | Cc1cccc(C(=O)Nc2nc(-c3ccccn3)cc3ccccc23)c1 | 0
29 | COc1cccc(C(=O)Nc2nc(-c3ccccn3)cc3ccccc23)c1 | 0
30 | COc1ccc(C(=O)Nc2nc(-c3ccccn3)nc3ccccc23)cc1 | 20
31 | N=CNc1nc(-c2ccccn2)cc2ccccc12 | 42
32 | O=C(c1ccccc1)N(C(=O)c1ccccc1)c1nc(-c2ccccn2)cc2ccccc12 | 27
33 | Cc1cccc(C)c1C(=O)Nc1nc(-c2ccccn2)cc2ccccc12 | 0
34 | Cc1ccc(C(=O)Nc2nc(-c3ccccn3)cc3ccccc23)cc1C | 0
35 | CC(=O)Nc1nc(-c2ccccn2)cc2ccccc12 | 18
36 | O=C(Cc1nc(-c2ccccn2)cc2ccccc12)c1ccccc1 | 22
37 | Cc1ccc(C(=O)Nc2nc(-c3ccccn3)cc3ccccc23)c(C)c1 | 0
38 | CC(C)C(=O)Nc1nc(-c2ccccn2)cc2ccccc12 | 48
39 | O=C(Nc1nc(-c2ccccn2)nc2ccccc12)c1ccccc1 | 2
40 | O=C(c1ccccc1)N(C(=O)c1ccccc1)c1nc(-c2ccccn2)nc2ccccc12 | 3
41 | Cc1cc(C)cc(C(=O)Nc2nc(-c3ccccn3)cc3ccccc23)c1 | 0
42 | N=CNc1nc(-c2ccccn2)nc2ccccc12 | 17
43 | O=C(Nc1nc(-c2ccccn2)nc2ccccc12)C(F)(F)F | 0
44 | O=C(Nc1nc(-c2ccccn2)cc2ccccc12)c1ccccc1 | 0
45 | COc1ccc(C(=O)Nc2nc(-c3ccccn3)cc3ccccc23)cc1 | 0
46 | Cc1ccc(C(=O)Nc2nc(-c3ccccn3)cc3ccccc23)cc1 | 0
47 | O=C(Nc1nc(-c2ccccn2)cc2ccccc12)c1ccc(Cl)c(Cl)c1 | 0
48 | O=C(Nc1nc(-c2ccccn2)cc2ccccc12)c1cccc(Cl)c1 | 0
49 | Cc1ccc(C)c(C(=O)Nc2nc(-c3ccccn3)cc3ccccc23)c1 | 7
50 | Oc1nc(-c2ccccn2)nc2ccccc12 | 10

test system: not listed separately; assay: Relative binding affinity for adenosine receptors A1 and A3 as ratio of Ki; settings: not given

Row | SMILES | Ratio
51 | O=C(c1ccccc1)N(C(=O)c1ccccc1)c1nc(-c2ccccn2)cc2ccccc12 | 19
52 | O=C(Cc1nc(-c2ccccn2)cc2ccccc12)c1ccccc1 | 0.36
53 | O=C(Nc1nc(-c2ccccn2)cc2ccccc12)c1ccccc1 | 16

Source: ChEMBL document CHEMBL1131134, “A novel class of adenosine A3 receptor ligands. 2. Structure affinity profile of a series of isoquinoline and quinazoline compounds” (J Med Chem, 1998)
